From ChEMBL document CHEMBL3994660, “Novel 5-arylthio-5H-chromenopyridines as a new class of anti-fibrotic agents” (Bioorg Med Chem Lett, 2017)
Calls of active or inactive are those of the source. The calls are words filed in the database; no cut-off is given here.

Columns and labels:
[1] = Cytotoxicity against human Huh7.5 cells infected with HCV assessed as reduction in cell viability at 5 to 25 uM after 6 hrs by CellTiter-Glo luminescent assay; assay type: cell-based; conditions: huh7.5, 6 h
Hepatitis C virus [2] = test: Inhibition of HCV NS5A protein expression infected in human Huh7.5 cells at 5 to 25 uM after 6 hrs by Western blot method; assay type: functional, cell-based; conditions: Hepacivirus hominis
[3] = Cytotoxicity against human LX2 cells assessed as reduction in cell viability at 5 to 25 uM after 6 hrs by CellTiter-Glo luminescent assay; assay type: cell-based; conditions: lx2, 6 h
Hepatitis C virus [4] = test: Inhibition of HCV NS3 protein expression infected in human Huh7.5 cells at 25 uM after 6 hrs by Western blot method relative to control; assay type: functional, Hepacivirus hominis; conditions: Huh7.5, 6 h
LX2 [5] = test: Antifibrotic activity against human LX2 cells assessed as inhibition of spindle shaped cells by measuring round shaped cells at 10 uM after 6 hrs by light microscopic method; assay type: functional, cell-based
Hepatitis C virus [6] = test: Inhibition of HCV NS3 protein expression infected in human Huh7.5 cells at 5 uM after 6 hrs by Western blot method relative to control; assay type: functional, Hepacivirus hominis; conditions: Huh7.5, 6 h
Hepatitis C virus [7] = test: Inhibition of HCV NS3 protein expression infected in human Huh7.5 cells at 10 uM after 6 hrs by Western blot method relative to control; assay type: functional, Hepacivirus hominis; conditions: Huh7.5, 6 h
LX2 [8] = test: Antifibrotic activity against human LX2 cells assessed as inhibition of spindle shaped cells by measuring round shaped cells at 25 uM after 6 hrs by light microscopic method; assay type: functional, cell-based

| Structure (SMILES) | Activity [1] | inhibition (Hepatitis C virus [2]) | Activity [3] | inhibition at 25 µM (Hepatitis C virus [4]) [%] | inhibition (LX2 [5]) | inhibition at 5 µM (Hepatitis C virus [6]) [%] | inhibition at 10 µM (Hepatitis C virus [7]) [%] | inhibition (LX2 [8]) |
| --- | --- | --- | --- | --- | --- | --- | --- | --- |
| CCN(CC)c1ccc2c(c1)Oc1nc(N)c(C#N)c(N)c1C2Sc1ccc(Br)cc1 (stereo unspecified) | Non-Toxic | inactive | Non-Toxic | 32 | Active | 59 | 49 |  |
| CCN(CC)c1ccc2c(c1)Oc1nc(N)c(C#N)c(N)c1C2Sc1ccc(F)cc1 (stereo unspecified) | Non-Toxic | inactive | Non-Toxic | 0 | Active | 33 | 3 |  |
| CCN(CC)c1ccc2c(c1)Oc1nc(N)c(C#N)c(N)c1C2Sc1ccc(SC)cc1 (stereo unspecified) | Non-Toxic | inactive |  | 45 |  | 29 | 35 | Active |
| CCN(CC)c1ccc2c(c1)Oc1nc(N)c(C#N)c(N)c1C2Sc1ccc(OC)cc1 (stereo unspecified) | Non-Toxic | inactive | Toxic | 28 |  | 47 | 27 |  |
| CCc1ccc(SC2c3ccc(N(CC)CC)cc3Oc3nc(N)c(C#N)c(N)c32)cc1 (stereo unspecified) | Non-Toxic | inactive | Non-Toxic | 19 |  | 47 | 0 | Active |
| CCN(CC)c1ccc2c(c1)Oc1nc(N)c(C#N)c(N)c1C2Sc1ccc(C)cc1 (stereo unspecified) | Non-Toxic | inactive |  |  |  |  |  |  |
| CCN(CC)c1ccc2c(c1)Oc1nc(N)c(C#N)c(N)c1C2Sc1ccc(Cl)cc1 (stereo unspecified) | Non-Toxic | inactive | Toxic | 47 |  | 42 | 34 |  |
